Test results as given in patent US7910576B2, “Pyrrole derivatives as P2Y12 antagonists” (Sanofi-Aventis, priority 2007, dated 2011).

Biological target: T1, human P2Y12 receptor (Homo sapiens, UniProt Q9H244)
T1 construct: expressed in transfected cells; host or cells: Chinese Hamster Ovary (CHO) cells, membrane preparation
Test: Human P2Y12 recombinant cell membrane binding assay
Conditions: competition against 33P 2MeS-ADP; membranes of CHO cells with recombinant human P2Y12 receptor; read-out: inhibition MeSADP binding P2Y12, IC 50
Method: Human P2Y12 Recombinant Cell Membrane Binding Assay
The ability of a test compound to bind to the P2Y12 receptor was evaluated in a recombinant cell membrane binding assay. In this competitive binding assay, the test compound competed against a radiolabeled agonist for binding to the P2Y12 receptor, expressed on the cell membrane. Inhibition of binding of the labeled material was measured and correlated to the amount and potency of the test compound. This binding assay is a modification of the procedure described by Takasaki, J. et. al, Mol. Pharmacol., 2001, Vol. 60, pg. 432.
As source of P2Y12, a membrane preparation was prepared from Chinese Hamster Ovary (CHO) cells with recombinant expression of the human P2Y12 receptor according to standard procedures.
To a 96-well microtiterplate the following were added: a) 24 μl of assay buffer (10 mM HEPES, 138 mM NaCl, […] KCl, 12 mM NaHCO3, 1 mM EDTA-Na, 0.1% BSA, pH 7.4) b) 1 μL compound in DMSO c) 50 μL P2Y12 CHO membrane (20 μg/ml) and after 15 min at RT d) 25 μL of 1.61 nM ^33P 2MeS— ADP (Perkin Elmer NEN custom synthesis, specific activity ˜2100 Ci/mmol) made in assay buffer.
After 20 min incubation at RT samples were transferred to 96-well microtiter filterplates (Millipore HTS GF/B), pre-wetted for 20 min with 300 μL of stop buffer (10 mM HEPES, 138 mM NaCl pH 7.4) and then filtered through completely with a Millipore plate vacuum. Next, wells were washed four times with 400 μl/well of stop buffer on a plate vacuum. The plate was disassembled and allowed to air dry overnight with the filter side up over night. The filter plates were snapped into adapter plates and 0.1 mL of Microscint 20 Scintillation Fluid (Perkin Elmer #6013621) was added to each well. The top of the filterplate was sealed with plastic plate covers. The sealed filterplate were incubated 2 hours at room temperature. A Microbeta Scintillation Counter was used to measure counts. The binding of compound is expressed as a % inhibition of specific binding, defined by subtraction of the background with 1 mM ADP. Compounds were diluted as 10 mM DMSO stocks and tested in a four-point, five-fold dilution series run in triplicate beginning at 10 μM, final concentration. Data were analyzed using a four-parameter curve fit with a fixed minimum and maximum experimentally defined as the average positive and negative controls on each plate.

T1 sequence (Q9H244 whole entry): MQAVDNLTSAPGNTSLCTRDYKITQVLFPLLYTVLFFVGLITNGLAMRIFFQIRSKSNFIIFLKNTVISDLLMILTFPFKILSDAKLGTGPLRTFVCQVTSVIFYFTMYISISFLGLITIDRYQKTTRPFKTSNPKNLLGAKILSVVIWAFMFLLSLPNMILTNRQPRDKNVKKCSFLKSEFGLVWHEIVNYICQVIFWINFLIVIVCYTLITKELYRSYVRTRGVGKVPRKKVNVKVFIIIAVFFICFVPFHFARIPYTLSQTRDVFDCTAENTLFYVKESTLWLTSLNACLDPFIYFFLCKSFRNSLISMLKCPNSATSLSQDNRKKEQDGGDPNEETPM

| SMILES | IC50 [nM] |
| --- | --- |
| Cc1[nH]c(-c2ccccc2)cc1C(=O)C(=O)N1CCN(c2cccc(C(F)(F)F)c2)CC1 [Example 1, 1-(2-Methyl-5-phenyl-1H-pyrrol-3-yl)-2-[4-(3-trifluoromethyl-phenyl)-piperazin-1-yl]-ethane-1,2-dione] | 500 |
| CCOC(=O)c1cccc(N2CCN(C(=O)C(=O)c3cc(-c4ccccc4)[nH]c3C)CC2)c1 [Example 33, 3-{4-[2-(2-Methyl-5-phenyl-1H-pyrrol-3-yl)-2-oxo-acetyl]-piperazin-1-yl}-benzoic acid ethyl ester] | 170 |
| Cc1[nH]c(-c2ccccc2)c(/C=C/C(=O)O)c1C(=O)C(=O)N1CCN(c2cccc(C(F)(F)F)c2)CC1 [Example 71, (E)-3-(5-Methyl-4-{2-oxo-2-[4-(3-trifluoromethyl-phenyl)-piperazin-1-yl]-acetyl}-2-phenyl-1H-pyrrol-3-yl)-acrylic acid] | 30 |
| Cc1[nH]c(-c2ccccc2)cc1C(=O)C(=O)N1CCC(C(=O)c2ccc(Br)cc2)CC1 [Example 51, 1-[4-(4-Bromo-benzoyl)-piperidin-1-yl]-2-(2-methyl-5-phenyl-1H-pyrrol-3-yl)-ethane-1,2-dione] | 710 |
| Cc1[nH]c(-c2ccccc2)cc1C(=O)C(=O)N1CCC(C(=O)c2cccc(Cl)c2)CC1 [Example 52, 1-[4-(3-Chloro-benzoyl)-piperidin-1-yl]-2-(2-methyl-5-phenyl-1H-pyrrol-3-yl)-ethane-1,2-dione] | 520 |
| Cc1[nH]c(-c2ccccc2)cc1C(=O)C(=O)N1CCN(c2ccc(Cl)c(C(F)(F)F)c2)CC1 [Example 10, 1-[4-(4-Chloro-3-trifluoromethyl-phenyl)-piperazin-1-yl]-2-(2-methyl-5-phenyl-1H-pyrrol-3-yl)-ethane-1,2-dione] | 700 |
